Source: patent US6521662B2, “Ceramide-like compounds having antioxidant property and a method for preparation thereof, and a cosmetic composition containing the same” (Pacific Corporation, priority 2000, dated 2003)

Columns and labels:
[1] = Solubility of natural ceramide and ceramide-like compounds in cosmetic solvents; assay type: physicochemical; settings: 20° C.; dissolved at 80° C. then cooled to 20° C.
Protocol: The solubility of a natural ceramide and of ceramide-like compounds:
Ceramide Type 3 represented by the following formula (III) has been mainly used in cosmetics. Accordingly, in this experiment were compared solubility of the ceramide Type 3 (obtained from bovine brain) and the ceramide-like compounds of Examples 1 to 3 in various solvents such as ethanol, which have been widely used in cosmetics. Samples were dissolved in the solvents of 80° C. then cooled to 20° C.

[2] = Anti-oxidative activity using linoleic acid; settings: ammoniumthiocyanate, after 3 minutes, lower absorbance means higher anti-oxidative activity
Protocol: Anti-oxidative activity using linoleic acid
Linoleic acid is easily oxidized to be peroxide due to double bond contained therein. Therefore, this experiment utilized the above property.
The control solution employed in this experiment was prepared by adding 2.88 ml of 2.5% linoeic acid in ethanol and 9 ml of 40 mmol phosphate buffer(pH 7.0) to 200 ml of ethanol. This control solution was maintained in the dark of 40° C. And, sample solutions were prepared by adding 9.7 ml of 75% ethanol, 0.1 ml of 30% ammoniumthiocyanate and 0.1 ml of each sample, to 0.1 ml of the control solution. After 3 minutes, the absorbance was measured at 500 nm by using a UV spectrophotometer. Lower absorbance value means higher anti-oxidative activity.

[3] = Anti-oxidative activity using DPPH; settings: 37° C. for 30 minutes; UV spectrophotometer
Protocol: Anti-oxidative activity using DPPH
Diphenylpicrylhydrazyl(DPPH) has been known as a radical reaction inhibitor which is stabilized by the radical reaction. Also, it has a chromophoric property with compounds having anti-oxidative activity. Therefore, this experiment utilized the above property.
About 50 ml of DPPH was introduced into the test tube. And samples were added dropwise thereto. After addition, the test tube was maintained in constant temperature bath of 37° C. for 30 minutes. The extent of color development was measured by UV spectrophotometer.

Compound | Solubility in Cetyl octanoate [1] | Solubility in Ethanol [1] | Solubility in Isopropyl palmitate [1] | Solubility in Octyl Palmitate [1] | Solubility in Octyl dodecanol [1] | Absorbance at 500 nm (Experiment Example 5-2) [2] | Color development with DPPH (Experiment Example 5-1) [3]
Cc1c(C)c2c(c(C)c1OC(=O)CCC(=O)N(CCO)CC(O)CN(CCO)C(=O)CCC(=O)Oc1c(C)c(C)c3c(c1C)CCC(C)(CCCC(C)CCCC(C)CCCC(C)C)O3)CCC(C)(CCCC(C)CCCC(C)CCCC(C)C)O2 (stereo not drawn) [Example 1, 1,3-bis(N-(2-hydroxyethyl)-α-tocopherylsuccinoylamino) -2-hydroxypropane] | >5% wt/wt % | >5% wt/wt % | >5% wt/wt % | >5% wt/wt % | >5% wt/wt % | 0.23 | Brown
Cc1cc(OC(=O)CCC(=O)N(CCO)CC(O)CN(CCO)C(=O)CCC(=O)Oc2cc(C)c3c(c2)CCC(C)(CCCC(C)CCCC(C)CCCC(C)C)O3)cc2c1OC(C)(CCCC(C)CCCC(C)CCCC(C)C)CC2 (stereo not drawn) [Example 2, 1,3-bis(N-(2-hydroxyethyl)-δ-tocopherylsuccinoylamino) -2-hydroxypropane] | >5% wt/wt % | >5% wt/wt % | >5% wt/wt % | >5% wt/wt % | >5% wt/wt % | 0.29 | Brown
Cc1c(OC(=O)CCC(=O)N(CCO)CC(O)CN(CCO)C(=O)CCC(=O)Oc2cc3c(c(C)c2C)OC(C)(CCCC(C)CCCC(C)CCCC(C)C)CC3)cc2c(c1C)OC(C)(CCCC(C)CCCC(C)CCCC(C)C)CC2 (stereo not drawn) [Example 3, 1,3-bis(N-(2-hydroxyethyl)-γ-tocopherylsuccinoylamino)-2-hydroxypropane] | >5% wt/wt % | >5% wt/wt % | >5% wt/wt % | >5% wt/wt % | >5% wt/wt % | 0.30 | Brown
CCCCCCCCCCCCCCCCCCCCCCCC(=O)NC(CO)C(O)C(O)CCCCCCCCCCCCCC (stereo not drawn) [Natural Ceramide (type 3), reference compound] | <1% wt/wt % | <1% wt/wt % | <1% wt/wt % | <1% wt/wt % | <1% wt/wt % | – | –
CC(=O)Oc1c(C)c(C)c2c(c1C)CCC(C)(CCC[C@H](C)CCC[C@H](C)CCCC(C)C)O2 (stereo partly drawn) [Vitamin E acetate, reference compound] | – | – | – | – | – | 0.44 | No color change
Vitamin E [reference compound] | – | – | – | – | – | 0.23 | No color change
